# Data: US12077503B2, “Substituted cyclic amides and their use as herbicides” (FMC CORPORATION, priority 2015, dated 2024)
# Legend:
# Type in all cases: in vivo
# [1] = system: barnyardgrass (Echinochloa crus-galli); assay: Test G Pre-Emergence Protocol; conditions: evaluated after 13 days
# Description: (§1) Seeds of corn (Zea mays), giant foxtail (Setaria faberi), barnyardgrass (Echinochloa crus-galli), ivy-leaved morning glory (Ipomoea hederacea), redroot pigweed (Amaranthus retroflexus) and velvetleaf (Abutilon theophrasti) were sown in standard soil in pots. After cultivation for one day under controlled conditions in a glasshouse (at 24/16° C., day/night; 14 hours light; 65% humidity), the plants were sprayed with an aqueous spray solution derived from the formulation of the technical active ingredient in acetone/water (50:50) solution containing 0.5% Tween 20 (polyoxyethylene sorbitan monolaurate, CAS RN 9005-64-5) to give a final dose of 15.625, 62.5 or 250 g/ha of test compound.
# (§2) The test plants were then grown on under controlled conditions in a glasshouse (at 24/16° C., day/night; 14 hours light; 65% humidity) and watered twice daily. After 13 days the test was evaluated (100=total damage to plant; 0=no damage to plant). A dash (-) means no test result.
# corn (Zea mays) [2] = assay: Test G Pre-Emergence Protocol; conditions: evaluated after 13 days
# Description: as §1, §2
# [3] = system: giant foxtail (Setaria faberi); assay: Test G Pre-Emergence Protocol; conditions: evaluated after 13 days
# Description: as §1, §2
# [4] = system: ivy-leaved morning glory (Ipomoea hederacea); assay: Test G Pre-Emergence Protocol; conditions: evaluated after 13 days; for Morning-glory, Ivy-leaved damage rating (100=total damage to plant; 0=no damage to plant): 15.625 g ai/ha; for plant damage rating, Morningglory, Ivy-leaved: 62.5 g ai/ha, 100=total damage to plant, 0=no damage to plant
# Description: as §1, §2
# [5] = system: redroot pigweed (Amaranthus retroflexus); assay: Test G Pre-Emergence Protocol; conditions: evaluated after 13 days; for plant damage rating, Pigweed, Redroot: 62.5 g ai/ha, 100=total damage to plant, 0=no damage to plant
# Description: as §1, §2
# [6] = system: velvetleaf (Abutilon theophrasti); assay: Test G Pre-Emergence Protocol; conditions: evaluated after 13 days; for plant damage rating, Velvetleaf: 62.5 g ai/ha, 100=total damage to plant, 0=no damage to plant
# Description: as §1, §2
# [7] = system: barnyardgrass (Echinochloa crus-galli); assay: Test G Post-Emergence Protocol; conditions: for Barnyardgrass damage rating: 15.625 g ai/ha, evaluated after 13 days (100=total damage to plant; 0=no damage to plant); for Barnyardgrass damage rating (100=total damage to plant; 0=no damage to plant): 62.5 g ai/ha; for Barnyardgrass damage rating (100=total damage to plant; 0=no damage to plant) / damage to plant, Barnyardgrass (100=total damage to plant; 0=no damage to plant): evaluated after 13 days; for damage to plant, Barnyardgrass (100=total damage to plant; 0=no damage to plant): 250 g ai/ha
# Description: as §1, with “8 days” for “one day”
# as §2
# corn (Zea mays) [8] = assay: Test G Post-Emergence Protocol; conditions: for damage to plant, Corn (100=total damage to plant; 0=no damage to plant): 250 g ai/ha
# Description: as §1, with “8 days” for “one day”
# as §2
# [9] = system: giant foxtail (Setaria faberi); assay: Test G Post-Emergence Protocol; conditions: for Foxtail, Giant damage rating: 15.625 g ai/ha, evaluated after 13 days (100=total damage to plant; 0=no damage to plant)
# Description: as §1, with “8 days” for “one day”
# as §2
# [10] = system: ivy-leaved morning glory (Ipomoea hederacea); assay: Test G Post-Emergence Protocol; conditions: for Morningglory, Ivy-leaved damage rating: 15.625 g ai/ha, evaluated after 13 days (100=total damage to plant; 0=no damage to plant); for Morningglory, Ivy-leaved damage rating (100=total damage to plant; 0=no damage to plant): 62.5 g ai/ha; for Morningglory, Ivy-leaved damage rating (100=total damage to plant; 0=no damage to plant) / damage to plant, Morningglory, Ivy-leaved (100=total damage to plant; 0=no damage to plant): evaluated after 13 days; for damage to plant, Morningglory, Ivy-leaved (100=total damage to plant; 0=no damage to plant): 250 g ai/ha
# Description: as §1, with “8 days” for “one day”
# as §2
# [11] = system: redroot pigweed (Amaranthus retroflexus); assay: Test G Post-Emergence Protocol; conditions: for Pigweed, Redroot damage rating (100=total damage to plant; 0=no damage to plant): 62.5 g ai/ha
# Description: as §1, with “8 days” for “one day”
# as §2
# [12] = system: velvetleaf (Abutilon theophrasti); assay: Test G Post-Emergence Protocol; conditions: for Velvetleaf damage rating: 15.625 g ai/ha, evaluated after 13 days (100=total damage to plant; 0=no damage to plant); for Velvetleaf damage rating (100=total damage to plant; 0=no damage to plant): 62.5 g ai/ha; for Velvetleaf damage rating (100=total damage to plant; 0=no damage to plant) / damage to plant, Velvetleaf (100=total damage to plant; 0=no damage to plant): evaluated after 13 days; for damage to plant, Velvetleaf (100=total damage to plant; 0=no damage to plant): 250 g ai/ha
# Description: as §1, with “8 days” for “one day”
# as §2
# [13] = 62.5 g ai/ha, 100=total damage to plant, 0=no damage to plant
# [14] = 15.625 g ai/ha, evaluated after 13 days (100=total damage to plant; 0=no damage to plant)
# [15] = 62.5 g ai/ha, evaluated after 13 days
# [16] = 250 g ai/ha, evaluated after 13 days
Structure (SMILES),Corn damage rating (100=total damage to plant; 0=no damage to plant) (corn (Zea mays) [2]; 15.625 g ai/ha),"Morning-glory, Ivy-leaved damage rating (100=total damage to plant; 0=no damage to plant) [4]","plant damage rating, Morningglory, Ivy-leaved [4]","Pigweed, Redroot damage rating (100=total damage to plant; 0=no damage to plant) ([5]; 15.625 g ai/ha)","plant damage rating, Pigweed, Redroot [5]",Velvetleaf damage rating (100=total damage to plant; 0=no damage to plant) ([6]; 15.625 g ai/ha),"plant damage rating, Velvetleaf [6]",Velvetleaf damage rating (100=total damage to plant; 0=no damage to plant) ([6]; 250 g ai/ha),Barnyardgrass damage rating [7],Barnyardgrass damage rating (100=total damage to plant; 0=no damage to plant) [7],"damage to plant, Barnyardgrass (100=total damage to plant; 0=no damage to plant) [7]","damage to plant, Corn (100=total damage to plant; 0=no damage to plant) (corn (Zea mays) [8]; evaluated after 13 days)","Foxtail, Giant damage rating [9]","Morningglory, Ivy-leaved damage rating [10]","Morningglory, Ivy-leaved damage rating (100=total damage to plant; 0=no damage to plant) [10]","damage to plant, Morningglory, Ivy-leaved (100=total damage to plant; 0=no damage to plant) [10]","Pigweed, Redroot damage rating (100=total damage to plant; 0=no damage to plant) ([11]; evaluated after 13 days)",Velvetleaf damage rating [12],Velvetleaf damage rating (100=total damage to plant; 0=no damage to plant) [12],"damage to plant, Velvetleaf (100=total damage to plant; 0=no damage to plant) [12]",also measured
CN1C[C@H](c2ccc(C(F)(F)F)cc2)[C@@H](C(=O)Nc2cccc(F)n2)C1=O (racemic) [Compound 1428],50,10,10,0,0,0,0,0,20,20,40,20,30,10,10,20,10,0,0,0,"pest or weed control at 15.625 g/ha ([1]; Echinochloa crus-galli, pre-emergence, 312 h, 15.625 g ai/ha, read-out: Barnyard grass damage rating (100=total damage to plant; 0=no damage to plant)): 50%; pest or weed control at 62.5 g/ha ([1]; Echinochloa crus-galli, pre-emergence, 312 h, 62.5 g ai/ha, 100=total damage to plant, 0=no damage to plant, read-out: plant damage rating, Barnyardgrass): 60%; pest or weed control at 250 g/ha ([1]; Echinochloa crus-galli, pre-emergence, 312 h, 250 g ai/ha, read-out: Barnyardgrass damage rating (100=total damage to plant; 0=no damage to plant)): 80%; plant injury at 62.5 g/ha (corn (Zea mays) [2]; Zea mays, pre-emergence, 312 h, 62.5 g ai/ha, 100=total damage to plant, 0=no damage to plant, read-out: plant damage rating, Corn): 20%; plant injury at 250 g/ha (corn (Zea mays) [2]; Zea mays, pre-emergence, 312 h, 250 g ai/ha, read-out: Corn damage rating (100=total damage to plant; 0=no damage to plant)): 70%; pest or weed control at 15.625 g/ha ([3]; Setaria faberi, pre-emergence, 312 h, 15.625 g ai/ha, read-out: Foxtail, Giant damage rating (100=total damage to plant; 0=no damage to plant)): 70%; pest or weed control at 62.5 g/ha ([3]; Setaria faberi, pre-emergence, 312 h, 62.5 g ai/ha, 100=total damage to plant, 0=no damage to plant, read-out: plant damage rating, Foxtail, Giant): 80%; pest or weed control at 250 g/ha ([3]; Setaria faberi, pre-emergence, 312 h, 250 g ai/ha, read-out: Foxtail, Giant damage rating (100=total damage to plant; 0=no damage to plant)): 80%; pest or weed control at 250 g/ha ([4]; Ipomoea, pre-emergence, 312 h, 250 g ai/ha, read-out: Morningglory, Ivy-leaved damage rating (100=total damage to plant; 0=no damage to plant)): 40%; pest or weed control at 250 g/ha ([5]; Amaranthus retroflexus, pre-emergence, 312 h, 250 g ai/ha, read-out: Pigweed, Redroot damage rating (100=total damage to plant; 0=no damage to plant)): 80%; plant injury at 15.625 g/ha (corn (Zea mays) [8]; Zea mays, post-emergence, 312 h, 15.625 g ai/ha, evaluated after 13 days (100=total damage to plant; 0=no damage to plant), read-out: Corn damage rating): 10%; plant injury at 62.5 g/ha (corn (Zea mays) [8]; Zea mays, post-emergence, 312 h, 62.5 g ai/ha, evaluated after 13 days, read-out: Corn damage rating (100=total damage to plant; 0=no damage to plant)): 10%; pest or weed control at 62.5 g/ha ([9]; Setaria faberi, post-emergence, 312 h, 62.5 g ai/ha, evaluated after 13 days, read-out: Foxtail, Giant damage rating (100=total damage to plant; 0=no damage to plant)): 50%; pest or weed control at 250 g/ha ([9]; Setaria faberi, post-emergence, 312 h, 250 g ai/ha, evaluated after 13 days, read-out: damage to plant, Foxtail, Giant (100=total damage to plant; 0=no damage to plant)): 60%; pest or weed control at 15.625 g/ha ([11]; Amaranthus retroflexus, post-emergence, 312 h, 15.625 g ai/ha, evaluated after 13 days (100=total damage to plant; 0=no damage to plant), read-out: Pigweed, Redroot damage rating): 10%; pest or weed control at 250 g/ha ([11]; Amaranthus retroflexus, post-emergence, 312 h, 250 g ai/ha, evaluated after 13 days, read-out: damage to plant, Pigweed, Redroot (100=total damage to plant; 0=no damage to plant)): 40%"
CN1CC(c2ccc(C(F)(F)F)cc2)C(C(=O)Nc2ccncc2[N+](=O)[O-])C1=O (racemic) [Compound 1568],0,0,0,0,0,0,0,0,0,10,20,10,0,0,0,0,0,0,0,0,"Barnyardgrass damage rating (100=total damage to plant; 0=no damage to plant) ([1]; 15.625 g ai/ha): 0; plant damage rating, Barnyardgrass [1, 13]: 0; Barnyardgrass damage rating (100=total damage to plant; 0=no damage to plant) ([1]; 250 g ai/ha): 0; plant damage rating, Corn (corn (Zea mays) [2]; [13]): 0; Corn damage rating (100=total damage to plant; 0=no damage to plant) (corn (Zea mays) [2]; 250 g ai/ha): 0; Foxtail, Giant damage rating (100=total damage to plant; 0=no damage to plant) ([3]; 15.625 g ai/ha): 0; plant damage rating, Foxtail, Giant [3, 13]: 0; Foxtail, Giant damage rating (100=total damage to plant; 0=no damage to plant) ([3]; 250 g ai/ha): 0; Morningglory, Ivy-leaved damage rating (100=total damage to plant; 0=no damage to plant) ([4]; 250 g ai/ha): 0; Pigweed, Redroot damage rating (100=total damage to plant; 0=no damage to plant) ([5]; 250 g ai/ha): 0; Corn damage rating (corn (Zea mays) [8]; [14]): 0; Corn damage rating (100=total damage to plant; 0=no damage to plant) (corn (Zea mays) [8]; [15]): 0; Foxtail, Giant damage rating (100=total damage to plant; 0=no damage to plant) [9, 15]: 0; damage to plant, Foxtail, Giant (100=total damage to plant; 0=no damage to plant) [9, 16]: 0; Pigweed, Redroot damage rating [11, 14]: 0; damage to plant, Pigweed, Redroot (100=total damage to plant; 0=no damage to plant) [11, 16]: 0"
